In test [1] the test system is mitochondrial Ca2+ concentration ([Ca2+]mito). The test can be described thus: Mitochondrial Ca2+ measurement with mt-pericam in cultured SAN cells. In kind it is cell-based, mouse. As to conditions: Ru360 dialysis. Here is the method:
(§1) SAN cells were placed in Tyrode's solution at 36±0.5° C. and were identified by their characteristic morphology (spindle or spider shape) and spontaneous activity. SAN cells were identified electrophysiologically by spontaneous action potentials with a slow depolarizing phase 4 and the hyperpolarization-activated current (If).^27 Spontaneous action potentials, If and ICa were recorded using the perforated (amphotericin B or β-escin in studies requiring dialysis of Ru360 and/or ATP) patch-clamp technique^28 on single SAN cells at 36±0.5° C. in Tyrode's solution. Intracellular Ca^2+ transients were recorded from single SAN cells using Fura-2 AM excited at 340 nm and 380 nm and emitted and 510 nm. Endogenous NADH from single SAN cells was measured by excitation at 350 nm and recording emitted light at 460 nm.^29 Mitochondrial Ca^2+ was measured at 535 nm from mt-pericam expressing SAN cells exited at 415 nm^20. Mitochondrial Ca^2+ entry was measured in cell membrane permeabilized cardiomyocytes isolated from DN-MCU transgenic, wild type mice and from HEK293 cells using Calcium green-5N^30.
Freshly isolated mouse SAN tissue was cut into small pieces and put into 35 mm tissue culture plates with DMEM. […] Expression of the recombinant ratio-5mt-pericam and DN-MCU in SAN cells was detected by GFP fluorescence. […]

The subject of test [2] is other cellular Ca2+ transport processes involved in cardiac muscle contraction. The following applies: even at micromolar levels; cited from earlier work.
The subject of test [3] is SERCA2a activity ([Ca2+]cyto decline). The test is described as follows: Cytoplasmic Ca2+ transient decay (Fura-2 AM) in SAN cells. In kind it is cell-based, mouse. As to conditions: Ru360 dialysis. As to the method: as §1
Cytosolic Ca^2+ levels were recorded from Fura-2-loaded cells, excited at wavelengths of 340 and 380 nm, and imaged with a 510 nm long-pass filter. Single isolated SAN cells were loaded with 0.1 μM Fura-2 AM for 20 minutes, and then perfused for 20 minutes to de-esterfy the Fura-2 AM in normal Tyrode's solution. After placement on a recording chamber, the cells were perfused in normal Tyrode's solution at 36° C.±0.5. Spindle-shaped, spontaneously beating cells were chosen for experiments. Action potential recording was performed simultaneously.

The test system of the next test is NADH. The test can be described thus: NADH autofluorescence in SAN cells. As to conditions: Ru360 dialysis. In kind it is cell-based, mouse. Here is the method:
as §1
The autofluorescence of endogenous NADH, which derives primarily from mitochondria,^29,35 was measured as described^29. NADH was excited at 350 nm (AT350/SOX, Chroma) and fluorescence was recorded at 460 nm (ET460/50m and T400LP, Chroma). […]

Test [4] has as its system Ca2+ uptake into mitochondria in intact myocytes. As to conditions: incubation with ~10 μM Ru360 for 30 min; cited from earlier work.

On to (μ)[(HCO2)(NH3)4Ru]2OCl3) [Ru360], for which the “ISO-induced increase in [Ca2+]mito” value in test [1] was “prevented”. Moreover, the “Effect on other cellular Ca2+ transport processes involved in cardiac muscle contraction” value in test [2] was “does not affect”. In addition, the “Decline in [Ca2+]cyto after ISO” value in test [3] (ISO stimulated) is given as “slowed”. Besides, the “Decline in [Ca2+]cyto in the absence of ISO stimulation” value in test [3] (no ISO) is listed as “did not slow”. Besides, the “ISO-induced increase in NADH fluorescence” value with NADH is “prevented”. Also, the “Block of Ca2+ uptake into mitochondria in intact myocytes” value in test [4] is reported as “completely blocks”.

Source of the values: patent publication US20160095837A1, “MODULATION OF MITOCHONDRIAL CALCIUM UNIPORTER ACTIVITY FOR TREATING AND PREVENTING ARRHYTHMIAS” (priority 2014, published 2016).
